In paper PMC8373983, “Effect of salinity on the zinc(II) binding efficiency of siderophore functional groups and implications for salinity tolerance mechanisms in barley” (Scientific Reports, 2021):
“And” between values parts separate entries of the source, which are not always exact repeats. Identical values can stand only once. Marks after values point to notes of the source that are not given here.

Assays:
[1] = Ligand protonation constants, potentiometric titration in NaCl; type: physicochemical
Description: (§1) Potentiometric measurements were carried out at T = 298.1 ± 0.1 K in thermostatted cells. The setup consisted of a Metrohm model 888 Titrando apparatus controlled by Metrohm TiAMO 1.2 software equipped with a combined gel electrode (VWR model 662 1759). Estimated precision was 0.2 mV and 0.003 ml for the electromotive force and titrant volume readings, respectively. All the potentiometric titrations were carried out under magnetic stirring and bubbling purified presaturated N2 through the solution to exclude O2 and CO2.
(§2) A 30 ml solution containing each ligand ([L] = 5 – 10 mM), NaCl and HCl was titrated with standard NaOH solutions. For the zinc(II)/ligand systems, the titrant solutions consisted of different amounts of ligand ([L] = 5 − 10 mM), zinc(II) ([Zn] = 0.5—5 mM) and a suitable amount of HCl and NaCl. All the measurements were carried out with an excess of the ligand, with respect to zinc(II) and at different zinc(II):ligand molar ratios. The selection of ratios investigated was determined by simulating titrations using Hyperquad Simulation and Speciation computer software (HySS)[41]. [Zn] and [L] were negligible compared to the background electrolyte concentrations. […] To account for the influence of zinc(II) hydrolysis in the zinc(II)/ligand systems, zinc(II) titrations were carried out separately at each ionic strength to determine the hydroxide constants so that these constants could be included in the equilibrium model used to refine the titration data. In these titrations, the zinc(II) concentration in the analyte solution was 0.7 mM.
(§3) Before each experiment, independent titrations of strong acid solutions with standard base were carried out under the same medium and ionic strength conditions as the systems to be investigated, with the aim of determining the electrode potential (E^0’) using GLEE software. In this way, the pH scale used was the […], pH = -log [H]^+, where [H]^+ is the free proton concentration. For each titration, approximately 80 to 100 data points were collected. The equilibrium state during titrations was checked by confirming the time required to reach equilibrium.
(§4) The software program Hyperquad was used to determine the equilibrium model and to calculate pKa and stability constants from the potentiometric data set[43]. For each set of pKa constants or zinc(II):ligand ratio studied, at least two repeat titrations were performed. The titration curves for each system were treated as a single set when refining the stability constants. This meant that the refinement procedure was run on both curves at the same time to derive a single set of constants. The error reported on the stability constants is the standard deviation given in the Hyperquad output file. Examples of Hyperquad files for the zinc(II)/PYR system are provided on the Zenodo repository (https://doi.org/10.5281/zenodo.4641710).
(§5) The ionic strength dependence of the stability constants was studied with the modified version of the Extended Debye–Hückel equation[28]. The Monte Carlo method, as described by Hu et al.[43], was used to estimate 95% confidence intervals on the parameters of ionic strength dependence; for each species, predicted stability constants were resampled using an inverse of the cumulative normal distribution function to give sets of simulated data from which the unknown parameters were optimized. An example Excel calculation file for the application of the modified version of the Extended Debye–Hückel equation to the zinc(II)/PYR system (including the calculation of error on parameters of ionic strength dependence) has been uploaded to the Zenodo repository (https://doi.org/10.5281/zenodo.4641710).
(§6) To quantify the improvement of using a direct vs. indirect method for studying ionic strength dependence, the Davies equation (Eq. 3) was applied to the zinc(II)/PYR data. Speciation calculations for a [Zn] = 10^–6 M and [L] = 10^–5 M system at infinite dilution were conducted with the aid of HySS. […]

[2] = Zinc(II)-ligand stability constants, potentiometric titration in NaCl; type: binding; details: for decrease in the 1:1 zinc(II) stability constant / decrease of the 1:1 zinc(II) stability constant: between 0.00 and 1.00 M NaCl
Description: as §1, §2, §3, §4, §5, §6

[3] = Davies equation on 0.05 M NaCl data
[4] = Davies equation on 0.15 M NaCl data
[5] = Davies equation on 0.30 M NaCl data
[6] = Davies equation on 0.70 M NaCl data
[7] = Davies equation on 1.00 M NaCl data
[8] = intrinsic, modified Extended Debye–Hückel fit (direct), T = 298.1 K
[9] = parameter of ionic strength dependence, NaCl, T = 298.1 K
[10] = parameter of ionic strength dependence, NaCl

Oc1ccccc1O [PYR, pyrocatecholate]
log β, 2H+ + L = H2L ([1]; 0.05 M NaCl, T = 298.1 K): 21.36 ± 0.07
log β, H+ + L = HL ([1]; 0.05 M NaCl, T = 298.1 K): 12.16 ± 0.03
log β, 2H+ + L = H2L ([1]; 0.15 M NaCl, T = 298.1 K): 21.14 ± 0.02
log β, H+ + L = HL ([1]; 0.15 M NaCl, T = 298.1 K): 11.97 ± 0.01
log β, 2H+ + L = H2L ([1]; 0.30 M NaCl, T = 298.1 K): 21.06 ± 0.02
log β, H+ + L = HL ([1]; 0.30 M NaCl, T = 298.1 K): 11.94 ± .01
log β, 2H+ + L = H2L ([1]; 0.70 M NaCl, T = 298.1 K): 21.04 ± 0.02
log β, H+ + L = HL ([1]; 0.70 M NaCl, T = 298.1 K): 11.96 ± 0.01
log β, 2H+ + L = H2L ([1]; 1.00 M NaCl, T = 298.1 K): 20.88 ± 0.02
log β, H+ + L = HL ([1]; 1.00 M NaCl, T = 298.1 K): 11.79 ± 0.01
log β0 (indirect), H2L [1, 3]: 21.61±0.07
log β0 (indirect), HL- [1, 3]: 12.50±0.03
log β0 (indirect), H2L [1, 4]: 21.48±0.02
log β0 (indirect), HL- [1, 4]: 12.45±0.01
log β0 (indirect), H2L [1, 5]: 21.45±0.02
log β0 (indirect), HL- [1, 5]: 12.48±0.01
log β0 (indirect), H2L [1, 6]: 21.4±0.02
log β0 (indirect), HL- [1, 6]: 12.46±0.01
log β0 (indirect), H2L [1, 7]: 21.18 ±0.02
log β0 (indirect), HL- [1, 7]: 12.20±0.01
logβ^0, 2H+ + L = H2L [1, 8]: 21.87±0.001 and 21.874 ± 0.001
logβ^0, H+ + L = HL [1, 8]: 12.49 ±0.009 and 12.489 ± 0.009
C, 2H+ + L = H2L [1, 9]: 0.296 ± 0.001
C, H+ + L = HL [1, 9]: 0.183 ± 0.015
log β, Zn2+ + 2L = ZnL2 ([2]; 0.05 M NaCl, T = 298.1 K): 16.66±0.04
log β, Zn2+ + L = ZnL (1:1) ([2]; 0.05 M NaCl, T = 298.1 K): 9.29±0.03
log β, Zn2+ + 2L = ZnL2 ([2]; 0.15 M NaCl, T = 298.1 K): 15.93±0.02
log β, Zn2+ + L = ZnL (1:1) ([2]; 0.15 M NaCl, T = 298.1 K): 8.89±0.02
log β, Zn2+ + 2L = ZnL2 ([2]; 0.30 M NaCl, T = 298.1 K): 15.32±0.01
log β, Zn2+ + L = ZnL (1:1) ([2]; 0.30 M NaCl, T = 298.1 K): 8.57±0.01
log β, Zn2+ + 2L = ZnL2 ([2]; 0.70 M NaCl, T = 298.1 K): 15.09±0.01
log β, Zn2+ + L = ZnL (1:1) ([2]; 0.70 M NaCl, T = 298.1 K): 8.50±0.01
log β, Zn2+ + 2L = ZnL2 ([2]; 1.00 M NaCl, T = 298.1 K): 14.59±0.01
log β, Zn2+ + L = ZnL (1:1) ([2]; 1.00 M NaCl, T = 298.1 K): 8.23±0.01
log β0 (indirect), ZnL [2, 3]: 9.97±0.03 and 9.97
log β0 (indirect), ZnL22- [2, 3]: 16.54±0.04 and 16.54
log β0 (indirect), ZnL [2, 4]: 9.85±0.02 and 9.85
log β0 (indirect), ZnL22- [2, 4]: 15.70±0.02 and 15.70
log β0 (indirect), ZnL [2, 5]: 9.65±0.01 and 9.65
log β0 (indirect), ZnL22- [2, 5]: 15.03±0.01 and 15.03
log β0 (indirect), ZnL [2, 6]: 9.50±0.01 and 9.50
log β0 (indirect), ZnL22- [2, 6]: 14.84±0.01 and 14.84
log β0 (indirect), ZnL [2, 7]: 9.05 ±01 and 9.05
log β0 (indirect), ZnL22- [2, 7]: 14.42±0.01 and 14.42
decrease in the 1:1 zinc(II) stability constant [2]: 20%
decrease of the 1:1 zinc(II) stability constant [2]: 1.67 logβ units
logβ0, Zn2+ + 2L = ZnL2 [2, 8]: 17.136±0.007 and 17.14±0.007 and 17.14
logβ0, Zn2+ + L = ZnL (1:1) [2, 8]: 9.90±0.001 and 9.90
C, Zn2+ + 2L = ZnL2 [2, 10]: -0.924±0.012

O=C(O)CO [GLY, glycolic acid]
log β, H+ + L = HL ([1]; 0.05 M NaCl, T = 298.1 K): 3.55 ± 0.01
log β, H+ + L = HL ([1]; 0.15 M NaCl, T = 298.1 K): 3.49 ± 0.01
log β, H+ + L = HL ([1]; 0.30 M NaCl, T = 298.1 K): 3.54 ± 0.01
log β, H+ + L = HL ([1]; 0.70 M NaCl, T = 298.1 K): 3.44 ± 0.01
log β, H+ + L = HL ([1]; 1.00 M NaCl, T = 298.1 K): 3.39 ± 0.01
logβ^0, H+ + L = HL [1, 8]: 3.750^b
C, H+ + L = HL [1, 9]: 0.070^b
log β, Zn2+ + L = ZnL (1:1) ([2]; 0.05 M NaCl, T = 298.1 K): 2.83±0.02
log β, Zn2+ + L = ZnL (1:1) ([2]; 0.15 M NaCl, T = 298.1 K): 2.10±0.01
log β, Zn2+ + L = ZnL (1:1) ([2]; 0.30 M NaCl, T = 298.1 K): 1.93±0.01
log β, Zn2+ + L = ZnL (1:1) ([2]; 0.70 M NaCl, T = 298.1 K): 1.25±0.03
stability lower than the equivalent 1:1 zinc(II)-PYR structure ([2]; 1:1 zinc(II) complex): approximately 7 logβ units
log β, Zn2+ + L = ZnL (1:1) ([2]; 1.00 M NaCl, T = 298.1 K): 0.83±0.04
decrease in the 1:1 zinc(II) stability constant [2]: ~80%
decrease of the 1:1 zinc(II) stability constant [2]: 2.19 logβ units
logβ0, Zn2+ + L = ZnL (1:1) [2, 8]: 3.018±0.003
C, Zn2+ + L = ZnL (1:1) [2, 10]: -1.418±0.006
